The assay concerns the target T1, Endothelin receptor type A (Oryctolagus cuniculus) (UniProt A5A8K3).
T1 sequence (whole entry): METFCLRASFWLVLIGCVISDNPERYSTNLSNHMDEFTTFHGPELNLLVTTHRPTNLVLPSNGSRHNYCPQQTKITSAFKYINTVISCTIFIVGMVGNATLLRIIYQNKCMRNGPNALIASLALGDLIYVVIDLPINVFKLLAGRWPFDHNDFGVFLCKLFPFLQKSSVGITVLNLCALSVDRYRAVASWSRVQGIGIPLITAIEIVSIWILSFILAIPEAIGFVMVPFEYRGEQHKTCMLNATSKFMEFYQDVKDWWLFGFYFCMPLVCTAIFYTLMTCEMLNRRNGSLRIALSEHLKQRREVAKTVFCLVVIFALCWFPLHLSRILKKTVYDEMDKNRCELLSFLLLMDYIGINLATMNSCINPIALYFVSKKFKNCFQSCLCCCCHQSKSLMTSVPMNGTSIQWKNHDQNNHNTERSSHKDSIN
The assay is described as follows: Inhibition of endothelin A receptor in New Zealand white rabbit aortic rings assessed as inhibition of endothelin-1-induced vascular contraction at 10^-6 M.

Each structure is given as a SMILES string. Calls of active or inactive are those of the source. The rule behind the calls is not given here.

Usually inhibition stands for the percentage by which the read-out fell short of the control.

On to `Cc1cc(C)nc(OC(C(=O)OCc2ccccc2)C(CO)(c2ccccc2)c2ccccc2)n1` (stereo not drawn), for which the inhibition result was “inactive”.
With `CC(=O)OCC(c1ccccc1)(c1ccccc1)C(Oc1nc(C)cc(C)n1)C(=O)O` (stereo not drawn) the figure was 9.64%.
For `Cc1cc(C)nc(OC(C(=O)O)C(COC(=O)OCC(C)C)(c2ccccc2)c2ccccc2)n1` (stereo not drawn) the value was 13.7%.
For the compound `CCOCC(c1ccccc1)(c1ccccc1)C(Oc1nc(C)cc(C)n1)C(=O)O` (stereo not drawn), the inhibition turned out to be 20.6%.
For `COc1ccccc1Oc1c(NS(=O)(=O)c2ccc(C(C)(C)C)cc2)nc(-c2ncccn2)nc1OCCO`, the inhibition worked out at 22.5%.
For `Cc1cc(C)nc(OC(C(=O)O)C(C#N)(c2ccccc2)c2ccccc2)n1` (racemic) the value was 42.2%; for `CCCCCCCC(=O)OCC(c1ccccc1)(c1ccccc1)C(Oc1nc(C)cc(C)n1)C(=O)O` (stereo not drawn), 5.61%.
With `COCC(c1ccccc1)(c1ccccc1)C(Oc1nc(C)cc(C)n1)C(=O)O` (stereo not drawn) the entry was “inactive”.
For `Cc1cc(C)nc(OC(C(=O)O)C(COCc2ccccc2)(c2ccccc2)c2ccccc2)n1` (stereo not drawn) the value was “inactive”; for `Cc1cc(C)nc(OC(C(=O)O)C(COC(=O)CCCC(=O)O)(c2ccccc2)c2ccccc2)n1` (stereo not drawn), 3.47%; for `CCOC(=O)OCC(c1ccccc1)(c1ccccc1)C(Oc1nc(C)cc(C)n1)C(=O)O` (stereo not drawn), 15.5%.
On to `COC(c1ccccc1)(c1ccccc1)[C@H](Oc1nc(C)cc(C)n1)C(=O)O`, for which the inhibition came to 43.2%.
With `Cc1cc(C)nc(OC(C(=O)O)C(COC(=O)Cc2ccccc2)(c2ccccc2)c2ccccc2)n1` (stereo not drawn) the entry was “inactive”; with `Cc1cc(C)nc(OC(C(=O)O)C(COC(=O)CC(C)C)(c2ccccc2)c2ccccc2)n1` (stereo not drawn), 21.8%.
Consider `COc1ccc(C(=O)OCC(c2ccccc2)(c2ccccc2)C(Oc2nc(C)cc(C)n2)C(=O)O)cc1` (stereo not drawn), for which the inhibition entry was “inactive”.
With `CCCC(=O)OCC(c1ccccc1)(c1ccccc1)C(Oc1nc(C)cc(C)n1)C(=O)O` (stereo not drawn) the figure was 1.11%.
Take `Cc1cc(C)nc(OC(C(=O)O)C(COC(=O)CCC(=O)O)(c2ccccc2)c2ccccc2)n1` (stereo not drawn): the inhibition result was “inactive”.
With `Cc1cc(C)nc(OC(C(=O)O)C(COC(=O)C(C)(C)C)(c2ccccc2)c2ccccc2)n1` (stereo not drawn), the inhibition result was “inactive”.
Turning to `CCCCOCC(c1ccccc1)(c1ccccc1)C(Oc1nc(C)cc(C)n1)C(=O)O` (stereo not drawn), the inhibition stood at 15.1%.
Turning to `Cc1cc(C)nc(OC(C(=O)O)C(COC(=O)CCc2ccccc2)(c2ccccc2)c2ccccc2)n1` (stereo not drawn), the inhibition result is “inactive”.
In the case of `Cc1cccc(C(=O)OCC(c2ccccc2)(c2ccccc2)C(Oc2nc(C)cc(C)n2)C(=O)O)c1` (stereo not drawn), the inhibition entry is “inactive”.
With `CCCOCC(c1ccccc1)(c1ccccc1)C(Oc1nc(C)cc(C)n1)C(=O)O` (stereo not drawn) the entry was “inactive”; with `CCCCC(=O)OCC(c1ccccc1)(c1ccccc1)C(Oc1nc(C)cc(C)n1)C(=O)O` (stereo not drawn), 5.88%.
Turning to `Cc1cc(C)nc(OC(C(=O)O)C(COC(=O)c2cccnc2)(c2ccccc2)c2ccccc2)n1` (stereo not drawn), the inhibition came to 7.82%.
For the compound `Cc1cc(C)nc(OC(C(=O)O)C(Cc2ccccc2)(c2ccccc2)c2ccccc2)n1` (stereo not drawn), the inhibition came out at 11.8%.
For `Cc1cc(C)nc(OC(C(=O)O)C(CO)(c2ccccc2)c2ccccc2)n1` (stereo not drawn) the value was 23.2%; for `Cc1cc(C)nc(OC2C(=O)OCC2(c2ccccc2)c2ccccc2)n1` (stereo not drawn), 14.3%.
For `Cc1ccc(S(=O)(=O)OCC(c2ccccc2)(c2ccccc2)C(Oc2nc(C)cc(C)n2)C(=O)O)cc1` (stereo not drawn) the value was “inactive”; for `Cc1cc(C)nc(OC(C(=O)O)C(COC(=O)c2ccccc2)(c2ccccc2)c2ccccc2)n1` (stereo not drawn), 8.09%.
With `Cc1cc(C)nc(OC(C(=O)O)C(COC(=O)N(C)C)(c2ccccc2)c2ccccc2)n1` (stereo not drawn) the entry was “inactive”.
In the case of `Cc1cc(C)nc(OC(C(=O)O)C(COC(=O)OC(C)C)(c2ccccc2)c2ccccc2)n1` (stereo not drawn), the inhibition is 22%.
On to `CCC(C)(C)C(=O)OCC(c1ccccc1)(c1ccccc1)C(Oc1nc(C)cc(C)n1)C(=O)O` (stereo not drawn), for which the inhibition result was “inactive”.
With `CCCCCC(=O)OCC(c1ccccc1)(c1ccccc1)C(Oc1nc(C)cc(C)n1)C(=O)O` (stereo not drawn) the entry was “inactive”; with `C=CCOCC(c1ccccc1)(c1ccccc1)C(Oc1nc(C)cc(C)n1)C(=O)O` (stereo not drawn), 23.4%.
For `Cc1cc(C)nc(OC(C(=O)O)C(COC(=O)OC(C)(C)C)(c2ccccc2)c2ccccc2)n1` (stereo not drawn), the inhibition entry is “inactive”.
For the compound `COC(=O)OCC(c1ccccc1)(c1ccccc1)C(Oc1nc(C)cc(C)n1)C(=O)O` (stereo not drawn), the inhibition worked out at 3.4%.
With `Cc1cc(C)nc(OC(C(=O)O)C(COC(=O)c2ccncc2)(c2ccccc2)c2ccccc2)n1` (stereo not drawn) the figure was 13.2%; with `CCC(=O)OCC(c1ccccc1)(c1ccccc1)C(Oc1nc(C)cc(C)n1)C(=O)O` (stereo not drawn), 21.7%.
